In ChEMBL document CHEMBL1909604, “A novel potential therapeutic avenue for autism: design, synthesis and pharmacophore generation of SSRIs with dual action” (Bioorg Med Chem Lett, 2011):

Key:
[1] = biological target: 5-hydroxytryptamine receptor 1B (Homo sapiens, UniProt P28222); test: Displacement of [3H]carboxytryptamine from recombinant human 5-HT1B receptor expressed in HEK cells by scintillation counting; assay type: cell-based, HEK293
[2] = biological target: 5-hydroxytryptamine receptor 1D (Homo sapiens, UniProt P28221); test: Displacement of [3H]GR125743 from recombinant human 5-HT1D receptor expressed in HEK cells by scintillation counting; assay type: cell-based, HEK293
Chain of 5-hydroxytryptamine receptor 1D (P28221 whole entry): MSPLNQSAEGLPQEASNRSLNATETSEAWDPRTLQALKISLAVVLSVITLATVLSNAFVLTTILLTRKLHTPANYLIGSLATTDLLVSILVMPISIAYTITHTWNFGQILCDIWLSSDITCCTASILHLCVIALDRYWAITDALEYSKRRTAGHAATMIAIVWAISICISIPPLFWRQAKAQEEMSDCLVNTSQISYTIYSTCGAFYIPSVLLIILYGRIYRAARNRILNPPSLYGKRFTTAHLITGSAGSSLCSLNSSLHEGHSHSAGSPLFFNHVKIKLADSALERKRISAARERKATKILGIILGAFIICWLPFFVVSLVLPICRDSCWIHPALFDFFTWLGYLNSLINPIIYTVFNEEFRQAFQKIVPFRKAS

Chain of 5-hydroxytryptamine receptor 1B (P28222 whole entry): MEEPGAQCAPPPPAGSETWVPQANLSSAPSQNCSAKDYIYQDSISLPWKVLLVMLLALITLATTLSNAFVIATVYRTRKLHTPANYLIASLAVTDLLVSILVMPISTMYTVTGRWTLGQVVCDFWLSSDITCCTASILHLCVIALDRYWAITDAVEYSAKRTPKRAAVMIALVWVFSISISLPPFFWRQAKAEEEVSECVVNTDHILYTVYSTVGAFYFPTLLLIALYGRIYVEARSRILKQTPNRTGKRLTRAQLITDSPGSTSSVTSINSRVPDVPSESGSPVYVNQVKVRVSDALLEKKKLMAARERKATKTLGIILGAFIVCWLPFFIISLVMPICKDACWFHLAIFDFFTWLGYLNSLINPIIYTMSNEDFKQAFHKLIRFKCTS

SMILES: COc1ccc(NC(=O)c2ccc3c(c2)N(C)C(=O)CN3c2ccc(Cl)c(Cl)c2)cc1N1CCN(C)CC1
- Ki [1]: 120 nM
- Ki [2]: 44 nM
